Legend:
[1] = molecular target: T1, human Cereblon WT GST-tagged protein (Homo sapiens, UniProt Q96SW2); assay: CRBN-binding affinity, HTRF (CEREBLON BINDING kit); conditions: for inhibition at 0.5 µM: read-out: Inhibition Rate at 0.5 µM (%); for inhibition at 2 µM: read-out: Inhibition Rate at 2 µM (%)
T1 construct: purchased CISBIO 64BDCRBNPEH

[2] = tested on: GSPT1; assay: Western blot, degradation of substrate protein in hPBMCs; format: cell-based, Human
[3] = molecular target: T2, IKZF3 (Homo sapiens, UniProt Q96SW2+Q9UKT9); assay: as above; format: cell-based
T2 construct: effects of the compounds of the present disclosure on the expression of target proteins in cells; endogenous in cells; host or cells: human PBMCs (Milecell Biotechnologies)
T2 sequence (Q9UKT9 whole entry): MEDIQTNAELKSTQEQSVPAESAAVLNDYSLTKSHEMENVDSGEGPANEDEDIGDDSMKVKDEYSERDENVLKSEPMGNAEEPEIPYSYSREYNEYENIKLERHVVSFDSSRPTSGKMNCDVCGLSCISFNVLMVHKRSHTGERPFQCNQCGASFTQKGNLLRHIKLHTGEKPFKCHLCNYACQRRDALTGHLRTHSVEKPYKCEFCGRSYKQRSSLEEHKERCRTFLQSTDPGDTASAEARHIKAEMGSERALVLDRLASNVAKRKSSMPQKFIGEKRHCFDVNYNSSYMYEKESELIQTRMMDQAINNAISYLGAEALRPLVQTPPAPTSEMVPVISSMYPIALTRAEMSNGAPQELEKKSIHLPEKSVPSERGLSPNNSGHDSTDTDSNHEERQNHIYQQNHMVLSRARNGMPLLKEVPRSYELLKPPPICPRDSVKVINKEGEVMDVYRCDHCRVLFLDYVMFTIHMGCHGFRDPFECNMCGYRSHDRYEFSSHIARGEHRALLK
T2 sequence (Q96SW2 whole entry): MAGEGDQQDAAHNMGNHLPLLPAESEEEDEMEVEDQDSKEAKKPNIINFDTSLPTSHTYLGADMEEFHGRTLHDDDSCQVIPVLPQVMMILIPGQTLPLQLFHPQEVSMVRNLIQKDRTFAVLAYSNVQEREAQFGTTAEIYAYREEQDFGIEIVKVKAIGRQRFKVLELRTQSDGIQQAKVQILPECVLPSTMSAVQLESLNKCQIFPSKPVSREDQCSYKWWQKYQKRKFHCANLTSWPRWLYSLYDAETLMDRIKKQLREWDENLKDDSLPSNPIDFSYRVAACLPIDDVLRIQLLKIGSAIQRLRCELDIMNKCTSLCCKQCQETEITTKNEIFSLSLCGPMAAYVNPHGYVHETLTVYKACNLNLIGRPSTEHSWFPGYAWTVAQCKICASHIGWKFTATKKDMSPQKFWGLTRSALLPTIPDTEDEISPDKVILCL
T2 sequence (Q16531 whole entry partner): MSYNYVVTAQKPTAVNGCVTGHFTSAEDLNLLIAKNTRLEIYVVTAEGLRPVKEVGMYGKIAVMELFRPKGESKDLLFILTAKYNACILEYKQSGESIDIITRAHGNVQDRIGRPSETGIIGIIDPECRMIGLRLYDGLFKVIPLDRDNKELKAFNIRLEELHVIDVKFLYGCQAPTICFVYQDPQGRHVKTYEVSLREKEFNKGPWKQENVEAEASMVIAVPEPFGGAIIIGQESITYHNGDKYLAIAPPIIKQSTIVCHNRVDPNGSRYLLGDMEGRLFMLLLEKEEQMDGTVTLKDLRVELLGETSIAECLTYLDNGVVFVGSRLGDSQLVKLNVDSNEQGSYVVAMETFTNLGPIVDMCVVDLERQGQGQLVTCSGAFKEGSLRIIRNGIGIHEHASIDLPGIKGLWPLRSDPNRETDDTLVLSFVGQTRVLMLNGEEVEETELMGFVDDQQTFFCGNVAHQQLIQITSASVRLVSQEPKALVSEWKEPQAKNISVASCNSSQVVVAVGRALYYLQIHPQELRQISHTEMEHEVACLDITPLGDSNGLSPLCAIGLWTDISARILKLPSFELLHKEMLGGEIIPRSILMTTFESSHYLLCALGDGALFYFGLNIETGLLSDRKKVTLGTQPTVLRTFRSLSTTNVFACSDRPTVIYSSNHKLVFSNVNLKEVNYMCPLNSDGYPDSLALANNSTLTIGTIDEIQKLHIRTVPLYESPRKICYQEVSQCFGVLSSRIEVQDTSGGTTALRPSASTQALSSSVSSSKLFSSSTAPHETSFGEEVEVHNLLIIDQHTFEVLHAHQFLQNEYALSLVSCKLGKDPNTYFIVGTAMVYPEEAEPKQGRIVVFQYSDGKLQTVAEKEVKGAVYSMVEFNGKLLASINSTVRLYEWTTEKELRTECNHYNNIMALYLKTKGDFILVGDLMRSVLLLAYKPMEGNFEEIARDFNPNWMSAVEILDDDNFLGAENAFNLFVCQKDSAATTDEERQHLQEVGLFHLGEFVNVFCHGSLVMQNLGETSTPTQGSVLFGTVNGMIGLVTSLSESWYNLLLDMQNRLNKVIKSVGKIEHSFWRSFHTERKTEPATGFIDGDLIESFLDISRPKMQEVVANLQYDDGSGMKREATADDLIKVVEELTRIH

[4] = molecular target: T3, WEE1 (Homo sapiens, UniProt P30291+Q96SW2); assay: as above; format: cell-based
T3 construct: effects of the compounds of the present disclosure on the expression of target proteins in cells; endogenous in cells; host or cells: human PBMCs (Milecell Biotechnologies)
T3 sequence (P30291 whole entry): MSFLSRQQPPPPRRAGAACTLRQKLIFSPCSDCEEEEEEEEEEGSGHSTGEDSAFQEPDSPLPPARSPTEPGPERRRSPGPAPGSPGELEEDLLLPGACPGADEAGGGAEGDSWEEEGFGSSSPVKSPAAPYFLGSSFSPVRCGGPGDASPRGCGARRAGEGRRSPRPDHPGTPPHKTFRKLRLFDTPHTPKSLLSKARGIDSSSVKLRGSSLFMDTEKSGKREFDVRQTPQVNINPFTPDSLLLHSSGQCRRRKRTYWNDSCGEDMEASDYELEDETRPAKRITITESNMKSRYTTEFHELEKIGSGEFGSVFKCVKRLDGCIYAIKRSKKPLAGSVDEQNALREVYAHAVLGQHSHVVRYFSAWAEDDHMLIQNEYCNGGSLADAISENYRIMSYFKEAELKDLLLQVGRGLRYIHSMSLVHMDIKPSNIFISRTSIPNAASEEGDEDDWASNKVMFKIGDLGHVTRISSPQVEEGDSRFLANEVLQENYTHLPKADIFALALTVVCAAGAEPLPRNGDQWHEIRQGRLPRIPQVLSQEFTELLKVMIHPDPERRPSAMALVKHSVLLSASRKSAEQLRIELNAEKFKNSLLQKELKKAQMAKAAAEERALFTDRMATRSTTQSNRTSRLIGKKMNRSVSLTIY
T3 sequence (Q96SW2 whole entry): as the sequence (Q96SW2 whole entry) above
T3 sequence (Q16531 whole entry partner): as the sequence (Q16531 whole entry partner) above

[5] = molecular target: T4, IKZF1 (Homo sapiens, UniProt Q13422+Q96SW2); assay: as above; format: cell-based
T4 construct: effects of the compounds of the present disclosure on the expression of target proteins in cells; endogenous in cells; host or cells: human PBMCs (Milecell Biotechnologies)
T4 sequence (Q13422 whole entry): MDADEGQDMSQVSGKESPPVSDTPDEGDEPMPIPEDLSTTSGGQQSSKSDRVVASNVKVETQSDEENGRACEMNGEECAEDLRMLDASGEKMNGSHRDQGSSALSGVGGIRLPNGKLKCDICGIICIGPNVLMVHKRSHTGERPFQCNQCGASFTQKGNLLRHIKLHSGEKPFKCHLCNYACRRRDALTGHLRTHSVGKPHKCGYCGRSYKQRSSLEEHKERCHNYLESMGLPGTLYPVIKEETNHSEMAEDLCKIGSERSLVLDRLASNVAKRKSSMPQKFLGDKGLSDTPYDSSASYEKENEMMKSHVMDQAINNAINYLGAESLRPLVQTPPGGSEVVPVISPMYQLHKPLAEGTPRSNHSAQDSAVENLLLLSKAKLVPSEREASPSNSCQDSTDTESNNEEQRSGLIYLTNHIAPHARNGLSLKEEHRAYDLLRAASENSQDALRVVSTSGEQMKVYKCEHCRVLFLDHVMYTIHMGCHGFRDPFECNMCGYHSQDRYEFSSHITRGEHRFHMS
T4 sequence (Q96SW2 whole entry): as the sequence (Q96SW2 whole entry) above
T4 sequence (Q16531 whole entry partner): as the sequence (Q16531 whole entry partner) above

[6] = molecular target: T5, IKZF2 (Homo sapiens, UniProt Q96SW2+Q9UKS7); assay: as above; format: cell-based
T5 construct: effects of the compounds of the present disclosure on the expression of target proteins in cells; endogenous in cells; host or cells: human PBMCs (Milecell Biotechnologies)
T5 sequence (Q9UKS7 whole entry): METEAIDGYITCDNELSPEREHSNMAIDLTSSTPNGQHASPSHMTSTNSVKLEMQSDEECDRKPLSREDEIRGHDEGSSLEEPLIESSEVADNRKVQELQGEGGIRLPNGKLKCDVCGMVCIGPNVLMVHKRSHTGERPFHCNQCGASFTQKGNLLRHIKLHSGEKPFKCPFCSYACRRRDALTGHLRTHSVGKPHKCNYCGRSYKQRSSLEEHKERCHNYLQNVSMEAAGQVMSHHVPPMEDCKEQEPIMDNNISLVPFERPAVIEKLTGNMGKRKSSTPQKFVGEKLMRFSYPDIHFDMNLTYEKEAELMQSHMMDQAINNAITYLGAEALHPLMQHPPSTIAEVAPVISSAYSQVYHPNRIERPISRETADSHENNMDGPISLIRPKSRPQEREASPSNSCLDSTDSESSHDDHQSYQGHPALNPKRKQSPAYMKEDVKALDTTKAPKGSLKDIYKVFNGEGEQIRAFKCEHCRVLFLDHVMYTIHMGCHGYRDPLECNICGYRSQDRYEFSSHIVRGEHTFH
T5 sequence (Q96SW2 whole entry): as the sequence (Q96SW2 whole entry) above
T5 sequence (Q16531 whole entry partner): as the sequence (Q16531 whole entry partner) above

[7] = molecular target: T6, CK1α (Homo sapiens, UniProt P48729+Q96SW2); assay: as above; format: cell-based
T6 construct: effects of the compounds of the present disclosure on the expression of target proteins in cells; endogenous in cells; host or cells: human PBMCs (Milecell Biotechnologies)
T6 sequence (P48729 whole entry): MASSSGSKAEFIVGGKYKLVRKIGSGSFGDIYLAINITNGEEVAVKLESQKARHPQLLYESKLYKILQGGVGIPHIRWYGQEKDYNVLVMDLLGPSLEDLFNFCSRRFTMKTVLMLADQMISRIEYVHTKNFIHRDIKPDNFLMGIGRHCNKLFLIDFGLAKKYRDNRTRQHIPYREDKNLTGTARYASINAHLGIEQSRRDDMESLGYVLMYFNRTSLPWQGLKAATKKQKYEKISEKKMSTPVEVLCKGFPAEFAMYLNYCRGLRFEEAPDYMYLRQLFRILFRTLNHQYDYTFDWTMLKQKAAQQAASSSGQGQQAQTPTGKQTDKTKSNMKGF
T6 sequence (Q96SW2 whole entry): as the sequence (Q96SW2 whole entry) above
T6 sequence (Q16531 whole entry partner): as the sequence (Q16531 whole entry partner) above

[8] = Western blot, 24 hours of compound treatment, compounds tested at 50 nM and 500 nM (concentration for the table not stated)
[9] = 24 hours treatment, compounds at 50 nM and 500 nM (concentration behind the class not stated)

T1 sequence (Q96SW2 whole entry): as the sequence (Q96SW2 whole entry) above

Structure (SMILES)	inhibition at 0.5 µM [1]	inhibition at 2 µM [1]	GSPT1 substrate protein remaining % [2, 8]	IKZF3 substrate protein remaining % [3, 8]	Wee1 substrate protein remaining % [4, 8]	IKZF 1 substrate protein remaining % [5, 8]	IKZF2 substrate protein remaining % [6, 8]	CK1α substrate protein remaining % [7, 8]	GSPT1 substrate protein remaining % [2, 9]	IKZF3 substrate protein remaining % [3, 9]	Wee1 substrate protein remaining % [4, 9]	IKZF 1 substrate protein remaining % [5, 9]	IKZF2 substrate protein remaining % [6, 9]	CK1α substrate protein remaining % [7, 9]
O=C1CCC(N2Cc3c(CN4CCC(N5CCCc6cc(F)ccc65)CC4)cccc3C2=S)C(=O)N1 (stereo not shown) [GT-08851, 3-(4-((4-(6-fluoro-3,4-dihydroquinolin-1(2H)-yl)piperidin-1-yl)methyl)-1-thioxoisoindolin-2-yl)piperidine-2,6-dione]	40 to 53%	60 to 80%	A (0% ≤ substrate protein remaining % ≤ 80%)	B (80%< substrate protein remaining %≤ 100%)	A (0% ≤ substrate protein remaining % ≤ 80%)	B (80%< substrate protein remaining %≤ 100%)	B (80%< substrate protein remaining %≤ 100%)	B (80%< substrate protein remaining %≤ 100%)	–	–	–	–	–	–
O=C1CCC(N2Cc3c(CN4CCC(N5CCOc6cc(F)ccc65)CC4)cccc3C2=S)C(=O)N1 (stereo not shown) [GT-08852, 3-(4-((4-(7-fluoro-2,3-dihydro-4H-benzo[b][1,4]oxazin-4-yl)piperidin-1-yl)methyl)-1-thioxoisoindolin-2-yl)piperidine-2,6-dione]	40 to 53%	80 to 100%	–	–	–	–	–	–	B (80%< substrate protein remaining %≤ 100%)	B (80%< substrate protein remaining %≤ 100%)	A (0% ≤ substrate protein remaining % ≤ 80%)	B (80%< substrate protein remaining %≤ 100%)	B (80%< substrate protein remaining %≤ 100%)	B (80%< substrate protein remaining %≤ 100%)
O=C1CCC(N2Cc3c(CN4CCC(c5cccc6c(F)cccc56)CC4)cccc3C2=S)C(=O)N1 (stereo not shown) [GT-08855, 3-(4-((4-(5-fluoronaphthalen-1-yl)piperidin-1-yl)methyl)-1-thioxoisoindolin-2-yl)piperidine-2,6-dione]	30 to 40%	60 to 80%	–	–	–	–	–	–	A (0% ≤ substrate protein remaining % ≤ 80%)	B (80%< substrate protein remaining %≤ 100%)	A (0% ≤ substrate protein remaining % ≤ 80%)	B (80%< substrate protein remaining %≤ 100%)	B (80%< substrate protein remaining %≤ 100%)	B (80%< substrate protein remaining %≤ 100%)
O=C1CCC(N2Cc3c(CN4CCC(c5cccc6cnccc56)CC4)cccc3C2=S)C(=O)N1 (stereo not shown) [GT-08857, 3-(4-((4-(isoquinolin-5-yl)piperidin-1-yl)methyl)-1-thioxoisoindolin-2-yl)piperidine-2,6-dione]	60 to 80%	80 to 100%	–	–	–	–	–	–	B (80%< substrate protein remaining %≤ 100%)	A (0% ≤ substrate protein remaining % ≤ 80%)	A (0% ≤ substrate protein remaining % ≤ 80%)	B (80%< substrate protein remaining %≤ 100%)	B (80%< substrate protein remaining %≤ 100%)	B (80%< substrate protein remaining %≤ 100%)
O=C1CCC(N2Cc3c(CN4CCC(c5ccnc6cc(F)ccc56)CC4)cccc3C2=S)C(=O)N1 (stereo not shown) [GT-08858, 3-(4-((4-(7-fluoroquinolin-4-yl)piperidin-1-yl)methyl)-1-thioxoisoindolin-2-yl)piperidine-2,6-dione]	60 to 80%	80 to 100%	–	–	–	–	–	–	B (80%< substrate protein remaining %≤ 100%)	B (80%< substrate protein remaining %≤ 100%)	A (0% ≤ substrate protein remaining % ≤ 80%)	B (80%< substrate protein remaining %≤ 100%)	B (80%< substrate protein remaining %≤ 100%)	B (80%< substrate protein remaining %≤ 100%)
O=C1CCC(N2Cc3c(CN4CC(c5ccnc6cc(F)ccc56)C4)cccc3C2=S)C(=O)N1 (stereo not shown) [GT-08860, 3-(4-((3-(7-fluoroquinolin-4-yl)azetidin-1-yl)methyl)-1-thioxoisoindolin-2-yl)piperidine-2,6-dione]	60 to 80%	80 to 100%	–	–	–	–	–	–	A (0% ≤ substrate protein remaining % ≤ 80%)	B (80%< substrate protein remaining %≤ 100%)	A (0% ≤ substrate protein remaining % ≤ 80%)	B (80%< substrate protein remaining %≤ 100%)	B (80%< substrate protein remaining %≤ 100%)	B (80%< substrate protein remaining %≤ 100%)
O=C1CCC(N2Cc3c(CN4CCN(c5ncnc6sccc56)CC4)cccc3C2=S)C(=O)N1 (stereo not shown) [GT-08912, 3-(4-((4-(thieno[2,3-d]pyrimidin-4-yl)piperazin-1-yl)methyl)-1-thioxoisoindolin-2-yl)piperidine-2,6-dione]	60 to 80%	80 to 100%	–	–	–	–	–	–	B (80%< substrate protein remaining %≤ 100%)	B (80%< substrate protein remaining %≤ 100%)	A (0% ≤ substrate protein remaining % ≤ 80%)	B (80%< substrate protein remaining %≤ 100%)	B (80%< substrate protein remaining %≤ 100%)	B (80%< substrate protein remaining %≤ 100%)
Cc1csc2ncnc(N3CCN(Cc4cccc5c4CN(C4CCC(=O)NC4=O)C5=S)CC3)c12 (stereo not shown) [GT-08913, 3-(4-((4-(5-methylthieno[2,3-d]pyrimidin-4-yl)piperazin-1-yl)methyl)-1-thioxoisoindolin-2-yl)piperidine-2,6-dione]	60 to 80%	80 to 100%	–	–	–	–	–	–	B (80%< substrate protein remaining %≤ 100%)	B (80%< substrate protein remaining %≤ 100%)	A (0% ≤ substrate protein remaining % ≤ 80%)	B (80%< substrate protein remaining %≤ 100%)	B (80%< substrate protein remaining %≤ 100%)	B (80%< substrate protein remaining %≤ 100%)

— EP4745135A1 (Gluetacs Therapeutics (Shanghai) Co., Ltd., priority 2023, dated 2025)
